From patent US20200369728A1, “PEPTIDOMIMETIC MACROCYCLES AND USES THEREOF” (Aileron Therapeutics, Inc., priority 2015, published 2020)

What was measured:
[1] = test system: Caspase 3; experiment: Caspase 3 detection assay in SJSA1 cells; assay type: cell-based; details: SJSA1, 48 h, Caspase 3 activation over DMSO-treated cells
[2] = test system: SJSA-1 cells; experiment: Cell lysis by peptidomimetic macrocycles (LDH release); assay type: cell-based; details: SJSA-1, 1 h
How it was run: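 SJSA-1 cells plated the day before, switched to RPMI with 1% FBS, then exposed 1 h at 37 °C to macrocycle at final 50 μM to 6.25 μM in 0.5% DMSO. LDH released into the supernatant was measured by kit. Controls: 0.5% DMSO (non-lytic), 10 μM melittin and 1% Triton X-100 (lytic).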

[3] = test system: RKO; experiment: Cell viability assay (MTT), RKO; details: read-out: RKO EC50 (72 h)

Structure (SMILES): CC(=O)N[C@@H](CC(C)C)C(=O)N[C@H](C(=O)N[C@@H](Cc1ccccc1)C(=O)N[C@]1(C)CCCCCCC=CCCC[C@@](C)(C(=O)N[C@@H](CO)C(=O)N[C@@H](C)C(=O)N[C@@H](C)C(N)=O)NC(=O)[C@H](CC2CCCCC2)NC(=O)[C@H](CCC(N)=O)NC(=O)[C@H](C)NC(=O)[C@H](Cc2c[nH]c3ccccc23)NC(=O)[C@H](Cc2ccc(O)cc2)NC(=O)[C@H](CCC(=O)O)NC1=O)[C@@H](C)O (single isomer, unassigned) [compound 148]
- caspase 0.3 μM [1]: 1
- caspase 3 μM [1]: 11
- caspase 10 μM [1]: 23
- caspase 30 μM [1]: 31
- 6.25 μM % Lysed cells (1 h LDH) [2]: 0%
- 25 μM % Lysed cells (1 h LDH) [2]: −1%
- 50 μM % Lysed cells (1 h LDH) [2]: 0%
- EC50 [3]: 15 to 30 µM

Structure (SMILES): CC(=O)N[C@@H](CC(C)C)C(=O)N[C@H](C(=O)N[C@@H](Cc1ccc(F)c(F)c1)C(=O)N[C@]1(C)CCCCCCC=CCCC[C@@](C)(C(=O)N[C@@H](CO)C(=O)N[C@@H](C)C(=O)N[C@@H](C)C(N)=O)NC(=O)[C@H](CC(C)C)NC(=O)[C@H](CCC(N)=O)NC(=O)[C@H](C)NC(=O)[C@H](Cc2c[nH]c3ccccc23)NC(=O)[C@H](Cc2ccc(O)cc2)NC(=O)[C@H](CCC(=O)O)NC1=O)[C@@H](C)O (single isomer, unassigned) [compound 158]
- caspase 0.3 μM [1]: 1
- caspase 3 μM [1]: 1.67
- caspase 10 μM [1]: 5
- caspase 30 μM [1]: 16.33
- 6.25 μM % Lysed cells (1 h LDH) [2]: 0%
- 25 μM % Lysed cells (1 h LDH) [2]: −2%
- EC50 [3]: > 30 µM

Structure (SMILES): CC[C@H](C)[C@H](NC(=O)[C@H](C)NC(=O)[C@H](C)NC(=O)[C@]1(C)CCCC=CCCCCCC[C@@](C)(NC(=O)[C@H](Cc2ccccc2)NC(=O)[C@@H](NC(=O)[C@H](CCC(=O)O)NC(C)=O)[C@@H](C)O)C(=O)N[C@@H](CCC(=O)O)C(=O)N[C@@H](Cc2c[nH]cn2)C(=O)N[C@@H](Cc2c[nH]c3ccccc23)C(=O)N[C@@H](C)C(=O)N[C@@H](CCC(N)=O)C(=O)N[C@@H](CC(C)C)C(=O)N1)C(=O)N[C@H](C)C(N)=O (single isomer, unassigned) [compound 175]
- caspase 0.3 μM [1]: 1
- caspase 3 μM [1]: 5
- caspase 10 μM [1]: 12
- caspase 30 μM [1]: 21
- 6.25 μM % Lysed cells (1 h LDH) [2]: 3%
- 25 μM % Lysed cells (1 h LDH) [2]: 1%
- 50 μM % Lysed cells (1 h LDH) [2]: 0%
- EC50 [3]: > 30 µM

Structure (SMILES): CC(=O)N[C@@H](CC(C)C)C(=O)N[C@H](C(=O)N[C@@H](Cc1ccccc1)C(=O)N[C@]1(C)CCCCCCC=CCCC[C@@](C)(C(=O)N[C@@H](C)C(=O)N[C@@H](C)C(=O)N[C@@H](Cc2ccccc2)C(=O)N[C@H](C)C(N)=O)NC(=O)[C@H](CC(C)C)NC(=O)[C@H](CCC(N)=O)NC(=O)[C@H](C)NC(=O)[C@H](Cc2c[nH]c3ccccc23)NC(=O)[C@H](Cc2ccc(O)cc2)NC(=O)[C@H](CCC(=O)O)NC1=O)[C@@H](C)O (single isomer, unassigned) [compound 219]
- caspase 0.3 μM [1]: 1
- caspase 3 μM [1]: 5
- caspase 10 μM [1]: 17
- caspase 30 μM [1]: 34
- 6.25 μM % Lysed cells (1 h LDH) [2]: 0%
- 25 μM % Lysed cells (1 h LDH) [2]: −1%
- 50 μM % Lysed cells (1 h LDH) [2]: 2%
- EC50 [3]: 5 to 15 µM

Structure (SMILES): CC(=O)N[C@@H](CC(C)C)C(=O)N[C@H](C(=O)N[C@@H](Cc1ccccc1)C(=O)N[C@]1(C)CCCCCCC=CCCC[C@@](C)(C(=O)N[C@@H](C)C(=O)N[C@@H](C)C(=O)N[C@@H](C)C(=O)N[C@@H](C)C(=O)N[C@@H](C)C(=O)N[C@@H](C)C(=O)N[C@H](C)C(N)=O)NC(=O)[C@H](CC(C)C)NC(=O)[C@H](CCC(N)=O)NC(=O)[C@H](C)NC(=O)[C@H](Cc2c[nH]c3ccccc23)NC(=O)[C@H](Cc2ccc(O)cc2)NC(=O)[C@H](C)NC1=O)[C@@H](C)O (single isomer, unassigned) [compound 316]
- caspase 0.3 μM [1]: 6.5
- caspase 1 μM ([1]; 1 μM): 10.5
- caspase 3 μM [1]: 21
- caspase 10 μM [1]: 32
- caspase 30 μM [1]: 32.5
- 6.25 μM % Lysed cells (1 h LDH) [2]: 0%
- 25 μM % Lysed cells (1 h LDH) [2]: 0%
- 50 μM % Lysed cells (1 h LDH) [2]: 1%
- EC50 [3]: < 5 µM
